US9149038B2, “4-amino-6-(heterocyclic)picolinates and 6-amino-2-(heterocyclic)pyrimidine-4-carboxylates and their use as herbicides” (Dow AgroSciences LLC, priority 2013, dated 2015)
Like-named read-outs stand apart in the source and are kept apart here.

Experiments:
[1] = system: Key Broadleaf Weed and Crop Species; assay: Post-Emergent Test II: postemergent herbicidal activity, visual rating after 14 d (Table 7); assay type: in vivo; conditions: post-emergence, 336 h; for pest or weed control at 35 g/ha: 35 g ai/ha; for pest or weed control at 70 g/ha: 70 g ai/ha; for pest or weed control at 140 g/ha: 140 g ai/ha; for pest or weed control at 280 g/ha: 280 g ai/ha
Summary of the method: (§1)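 Greenhouse-grown plants at the first or second true leaf stage (7-21 d, ~15 h photoperiod, 23-29° C day) were sprayed with compound in acetone/DMSO-based aqueous spray containing crop oil concentrate and Triton X-155 at 187 L/ha. Injury versus untreated plants was rated visually after 14 d on a 0-100 scale.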

[2] = system: Key Grass and Sedge Weeds as well as Grass Crops; assay: Post-Emergent Test II: postemergent herbicidal activity, visual rating after 14 d (Table 8); assay type: in vivo; conditions: post-emergence, 336 h; for pest or weed control at 35 g/ha: 35 g ai/ha; for pest or weed control at 70 g/ha: 70 g ai/ha; for pest or weed control at 140 g/ha: 140 g ai/ha; for pest or weed control at 280 g/ha: 280 g ai/ha
Summary of the method: as §1

[3] = ABUTH: velvetleaf (Abutilon theophrasti), read-out: Visual Growth Reduction (%) 14 Days After Application ABUTH
[4] = AMARE: redroot pigweed (Amaranthus retroflexus), read-out: Visual Growth Reduction (%) 14 Days After Application AMARE
[5] = BRSNN: oilseed rape, canola (Brassica napus), read-out: Visual Growth Reduction (%) 14 Days After Application BRSNN
[6] = CHEAL: lambsquarters (Chenopodium album), read-out: Visual Growth Reduction (%) 14 Days After Application CHEAL
[7] = EPHHL: wild poinsettia (Euphorbia heterophylla), read-out: Visual Growth Reduction (%) 14 Days After Application EPHHL
[8] = HELAN: sunflower (Helianthus annuus), read-out: Visual Growth Reduction (%) 14 Days After Application HELAN
[9] = barnyardgrass (Echinochloa crus-galli), read-out: Visual Growth Reduction (%) 14 Days After Application, ECHCG
[10] = giant foxtail (Setaria faberi), read-out: Visual Growth Reduction (%) 14 Days After Application, SETFA
[11] = maize, corn (Zea mays), read-out: Visual Growth Reduction (%) 14 Days After Application, ZEAMX
[12] = rice (Oryza sativa), read-out: Visual Growth Reduction (%) 14 Days After Application, ORYSA
[13] = wheat, spring (Triticum aestivum), read-out: Visual Growth Reduction (%) 14 Days After Application, TRZAS
[14] = yellow nutsedge (Cyperus esculentus), read-out: Visual Growth Reduction (%) 14 Days After Application, CYPES

In the case of COC(=O)c1nc(-c2ccc3c(c2F)OC(F)(F)C3(F)F)cc(N)c1Cl [Compound 106], the pest or weed control at 35 g/ha [1, 3] is reported as 45 to 59%, the pest or weed control at 70 g/ha [1, 3] is reported as 75 to 84% and the pest or weed control at 140 g/ha [1, 3] is reported as 75 to 84%. The pest or weed control at 280 g/ha [1, 3] was 85 to 94%, the pest or weed control at 35 g/ha [1, 4] was 30 to 44% and the pest or weed control at 70 g/ha [1, 4] was 30 to 44%. The pest or weed control at 140 g/ha [1, 4] was 60 to 74%, the pest or weed control at 280 g/ha [1, 4] was 75 to 84% and the pest or weed control at 35 g/ha [1, 5] was 0 to 29%. The pest or weed control at 70 g/ha [1, 5] was 0 to 29%, the pest or weed control at 140 g/ha [1, 5] was 0 to 29% and the pest or weed control at 280 g/ha [1, 5] was 0 to 29%. The pest or weed control at 35 g/ha [1, 6] was 0 to 29%, the pest or weed control at 70 g/ha [1, 6] was 0 to 29% and the pest or weed control at 140 g/ha [1, 6] was 45 to 59%. For the same molecule, the pest or weed control at 280 g/ha [1, 6] was 75 to 84%, the pest or weed control at 35 g/ha [1, 7] was 45 to 59% and the pest or weed control at 70 g/ha [1, 7] was 60 to 74%. It also gave a pest or weed control at 140 g/ha [1, 7] of 75 to 84%, a pest or weed control at 280 g/ha [1, 7] of 75 to 84% and a pest or weed control at 35 g/ha [1, 8] of 0 to 29%. The pest or weed control at 70 g/ha [1, 8] was 0 to 29%, the pest or weed control at 140 g/ha [1, 8] was 0 to 29% and the pest or weed control at 280 g/ha [1, 8] was 30 to 44%. The pest or weed control at 35 g/ha [2, 9] was 0 to 29%, the pest or weed control at 70 g/ha [2, 9] was 0 to 29% and the pest or weed control at 140 g/ha [2, 9] was 0 to 29%. It also gave a pest or weed control at 280 g/ha [2, 9] of 0 to 29%, a pest or weed control at 35 g/ha [2, 10] of 0 to 29% and a pest or weed control at 70 g/ha [2, 10] of 0 to 29%. For the same molecule, the pest or weed control at 140 g/ha [2, 10] was 0 to 29%, the pest or weed control at 280 g/ha [2, 10] was 0 to 29% and the pest or weed control at 35 g/ha [2, 11] was 0 to 29%. For the same molecule, the pest or weed control at 70 g/ha [2, 11] was 0 to 29%, the pest or weed control at 140 g/ha [2, 11] was 0 to 29% and the pest or weed control at 280 g/ha [2, 11] was 0 to 29%. For the same molecule, the pest or weed control at 35 g/ha [2, 12] was 0 to 29%, the pest or weed control at 70 g/ha [2, 12] was 0 to 29% and the pest or weed control at 140 g/ha [2, 12] was 0 to 29%. For the same molecule, the pest or weed control at 280 g/ha [2, 12] was 0 to 29%, the pest or weed control at 35 g/ha [2, 13] was 0 to 29% and the pest or weed control at 70 g/ha [2, 13] was 0 to 29%. For the same molecule, the pest or weed control at 140 g/ha [2, 13] was 0 to 29%, the pest or weed control at 280 g/ha [2, 13] was 0 to 29% and the pest or weed control at 35 g/ha [2, 14] was 0 to 29%. The pest or weed control at 70 g/ha [2, 14] was 0 to 29%, the pest or weed control at 140 g/ha [2, 14] was 0 to 29% and the pest or weed control at 280 g/ha [2, 14] was 0 to 29%.
